Experimental data from patent US20160106687A1, “HUMAN THERAPEUTIC AGENTS” (Life Plus, LLC, priority 2014, published 2016).

Columns and labels:
Format in all cases: cell-based
[1] = test system: ovarian cancer cells; test: Synergism with doxorubicin on ovarian cancer spheroids; conditions: low doses, up to 0.158 μM
Description: In this test, the synergism of GZ17-6.02 with doxorubicin (a common chemotherapy drug) was tested on ovarian cancer cells. In this test, increasing doses of doxorubicin were administered to ovarian cancer spheroids and cell deaths were measured, as described in Example 1. The protocol involved testing doxorubicin alone at various dosages (FIG. 8, doxorubicin alone—closed circles), with comparative tests using the various dosages of doxorubicin in combination with either 0.2 mg/mL (FIG. 8 open circles) or 0.4 mg/mL (FIG. 8 closed triangles) GZ17-6.02. Additionally, the induced cell death results from use of 0.2 mg/mL GZ17-6.02 alone (FIG. 8, line A) and 0.4 mg/mL GZ17-6.02 alone (FIG. 8, line B) were determined.

[2] = test system: human lung cancer cells (H358); test: Cell death in lung cancer spheroids, PrestoBlue; conditions: techniques of Example 1
Description: (§1) The respective cells were individually cultured in a growth medium prepared using RPMI-1640 medium containing 11.1 mM D-glucose with 10% fetal bovine serum, 10 mM HEPES, 2 mM L-glutamine, 1 mM sodium pyruvate, 0.05 mM 2-mercaptoethanol, and Antibiotic-Antimycotic. These cells were maintained in T75 tissue culture flasks in a humidified incubator at 37° C. and 5% CO2. The media were changed on a third day after cell plating, and the cells were passaged on day 5 by trypsinization.
(§2) Custom-made micromolds with 100 um diameter wells were loaded with the cells (U.S. Pat. No. 8,735,154, incorporated by reference herein). The media were changed every day by partial replacement. Cell aggregates were allowed to form in the micromolds for 72 hours and then were transferred to a 100 mm non-treated tissue culture dishes for 3 additional days. The spheroids were passed through 70 um and 100 μm cell strainers (#3431751 and #43152, Corning, Tewksbury, Mass.) and maintained in HEPES Balanced Salt Solution comprised of: 20 mM HEPES, 114 mM NaCl, 4.7 mM KCl, 1.2 mM KH2PO4, 1.16 mM MgSO4, 2.5 mM CaCl2, 25.5 mM NaHCO3 and 0.2% bovine serum albumin (fatty acid free), pH 7.2.
The lymphomas treatment methods used were identical to those described in Example 2 relative to the pediatric leukemia cells, whereas the lung cancer treatment method was the same as described in Example 1.

[3] = test system: human prostate cancer cells (22rv1); test: Cell death in prostate cancer spheroids, PrestoBlue; conditions: techniques of Example 1
Description: as §1, §2
(§3) The cells were treated and tested as set forth in Example 1.

[4] = test system: human ovarian cancer cells (A1847); test: Cell death in ovarian cancer spheroids, PrestoBlue; conditions: techniques of Example 1
Description: as §1, §2, §3

Row | Structure (SMILES) | cell death, doxorubicin alone [1] | anticancer effects (cell number versus increasing concentrations), compound alone [2] | anticancer effects (cell number versus increasing concentrations), compound alone [3] | anticancer effects (cell number versus increasing concentrations), compound alone [4]
1 | COc1cccc2c1C(=O)c1c(O)c3c(c(O)c1C2=O)C[C@@](O)(C(=O)CO)C[C@@H]3O[C@H]1C[C@H](N)[C@H](O)[C@H](C)O1 [doxorubicin] | ineffective |  |  | 
2 | COc1ccc(CO)cc1O [isovanillyl alcohol] |  | demonstrated anticancer effects | demonstrated anticancer effects | demonstrated anticancer effects
3 | COc1cc(C=O)ccc1O [vanillin] |  | demonstrated anticancer effects | demonstrated anticancer effects | demonstrated anticancer effects
4 | Cc1nccc2c1[nH]c1cc(O)ccc12.Cl [harmole hydrochloride] |  | demonstrated anticancer effects | demonstrated anticancer effects | demonstrated anticancer effects
5 | COc1ccc2c3c([nH]c2c1)C(C)=NCC3 [harmaline] |  | demonstrated anticancer effects | demonstrated anticancer effects | demonstrated anticancer effects
6 | COc1ccc2c3c([nH]c2c1)[C@@H](C)NCC3 [tetrahydro-harmine] |  | demonstrated anticancer effects | demonstrated anticancer effects | demonstrated anticancer effects
7 | CC1=NCCc2c1[nH]c1cc(O)ccc21.Cl [harmalol hydrochloride] |  | demonstrated anticancer effects | demonstrated anticancer effects | demonstrated anticancer effects
8 | COc1cccc(C=O)c1O [O-vanillin] |  | demonstrated anticancer effects | demonstrated anticancer effects | demonstrated anticancer effects
9 | COc1ccc(C(=O)O)cc1O [isovanillic acid] |  | demonstrated anticancer effects | demonstrated anticancer effects | demonstrated anticancer effects
